≈ marks a conversion by molar mass, not a printed value.
Key:
Klebsiella pneumoniae [1] = assay: microbe, parasite or virus in culture; conditions: ATCC 700603, 18 h, ASSAY_TEST Inhibition of Bacterial Growth, detection method Absorption (OD600), MEDIA CAMHB, plate type 384well, NBS, CORNING #3640
Description: (§1) Antibacterial activity against Klebsiella pneumoniae MDR ATCC 70063 (CO-ADD:GN_003); MIC in CAMBH media using NBS plates, by OD(600)

Escherichia coli [2] = assay: microbe, parasite or virus in culture; conditions: ATCC 25922, 18 h, ASSAY_TEST Inhibition of Bacterial Growth, detection method Absorption (OD600), MEDIA CAMHB, plate type 384well, NBS, CORNING #3640
Description: (§2) Antibacterial activity against Escherichia coli ATCC 25922 (CO-ADD:GN_001); MIC in CAMBH media using NBS plates, by OD(600)

Staphylococcus aureus [3] = conditions: ASSAY_TEST Inhibition of Bacterial Growth; detection method Absorption (OD600); MEDIA CAMHB; plate type 384well; NBS; CORNING #3640; time 18 hr
Description: (§3) Antibacterial activity against Staphylococcus aureus MRSA ATCC 43300 (CO-ADD:GP_020); MIC in CAMBH media, using NBS plates, by OD(600)

Candida albicans [4] = assay: microbe, parasite or virus in culture; conditions: ATCC 90028, ASSAY_TEST Inhibition of Fungal Growth, detection method Absorption (OD530), plate type 384well, NBS, CORNING #3640
Description: (§4) Antifungal activity against Candida albicans ATCC 90028 (CO-ADD:FG_001); MIC in YNB media using NBS plates, by OD630

Acinetobacter baumannii [5] = conditions: ASSAY_TEST Inhibition of Bacterial Growth; detection method Absorption (OD600); MEDIA CAMHB; plate type 384well; NBS; CORNING #3640; time 18 hr
Description: (§5) Antibacterial activity against Acinetobacter baumannii ATCC 19606 (CO-ADD:GN_034); MIC in CAMBH media using NBS plates, by OD600

HEK293 = assay: cells; assay type: functional, Homo sapiens, ATCC CRL1573; conditions: ASSAY_TEST Inhibition of Cell Viability, detection method Resazurin, Fluorescence (ex560/em590), MEDIA DMEM with 10% FBS, plate type 384well, TC, CORNING #3712, time 18 hr
Pseudomonas aeruginosa [6] = conditions: ASSAY_TEST Inhibition of Bacterial Growth; detection method Absorption (OD600); MEDIA CAMHB; plate type 384well; NBS; CORNING #3640; time 18 hr
Description: (§6) Antibacterial activity against Pseudomonas aeruginosa ATCC 27853 (CO-ADD:GN_042); MIC in CAMBH media using NBS plates, by OD(600)

Escherichia coli [7] = conditions: ASSAY_TEST Inhibition of Bacterial Growth; detection method Absorption (OD600); MEDIA CAMHB; plate type 384well; NBS; CORNING #3640; time 18 hr
Description: as §2

Klebsiella pneumoniae [8] = conditions: ASSAY_TEST Inhibition of Bacterial Growth; detection method Absorption (OD600); MEDIA CAMHB; plate type 384well; NBS; CORNING #3640; time 18 hr
Description: as §1

Candida albicans [9] = conditions: ASSAY_TEST Inhibition of Fungal Growth; detection method Absorption (OD530); plate type 384well; NBS; CORNING #3640
Description: as §4

Staphylococcus aureus [10] = assay: microbe, parasite or virus in culture; conditions: ATCC 43300, 18 h, ASSAY_TEST Inhibition of Bacterial Growth, detection method Absorption (OD600), MEDIA CAMHB, plate type 384well, NBS, CORNING #3640
Description: as §3

Pseudomonas aeruginosa [11] = assay: microbe, parasite or virus in culture; conditions: ATCC 27853, 18 h, ASSAY_TEST Inhibition of Bacterial Growth, detection method Absorption (OD600), MEDIA CAMHB, plate type 384well, NBS, CORNING #3640
Description: as §6

Acinetobacter baumannii [12] = assay: microbe, parasite or virus in culture; conditions: ATCC 19606, 18 h, ASSAY_TEST Inhibition of Bacterial Growth, detection method Absorption (OD600), MEDIA CAMHB, plate type 384well, NBS, CORNING #3640
Description: as §5

[13] = Homo sapiens, ATCC CRL1573, HEK293

Description for Cryptococcus neoformans: Antifungal activity against Cryptococcus neoformans H99 ATCC 208821 (CO-ADD:FG_002); MIC in YNB media using NBS plates, by Resazurin OD(600-570)

| MIC (Klebsiella pneumoniae [1]) | MIC (Cryptococcus neoformans) | MIC (Escherichia coli [2]) | MIC (Staphylococcus aureus [3]) | MIC (Candida albicans [4]) | MIC (Acinetobacter baumannii [5]) | MIC (Pseudomonas aeruginosa [6]) | MIC (Escherichia coli [7]) | MIC (Klebsiella pneumoniae [8]) | MIC (Candida albicans [9]) | MIC (Staphylococcus aureus [10]) | MIC (Pseudomonas aeruginosa [11]) | MIC (Acinetobacter baumannii [12]) | SMILES | CC50 (HEK293; [13]) | CC50 (HEK293) |
| --- | --- | --- | --- | --- | --- | --- | --- | --- | --- | --- | --- | --- | --- | --- | --- |
| 2.5 µM | > 10 µM | ≤ 0.0781 µM | 0.625 µM | > 10 µM | 2.5 µM | 0.625 µM |  |  |  |  |  |  | C[C@H]1COc2c(N3CCN(C)CC3)c(F)cc3c(=O)c(C(=O)O)cn1c23.C[C@H]1COc2c(N3CCN(C)CC3)c(F)cc3c(=O)c(C(=O)O)cn1c23.O [LEVOFLOXACIN] | > 10 µM |  |
|  | > 10 µM |  | 5 µM |  | >10 µM | >10 µM | >10 µM | >10 µM | >10 µM |  |  |  | COc1cccc2c1C(=O)c1c(O)c3c(c(O)c1C2=O)C[C@@](O)(C(C)=O)C[C@@H]3OC1CC(N)C(O)C(C)O1.Cl (some centres not stated) |  | 0.148 µM |
| > 10 µM | > 10 µM | 0.312 µM (≈ 0.142 µg/mL) |  | > 10 µM |  |  |  |  |  | > 10 µM | > 10 µM | > 10 µM | CON=C(C(=O)NC1C(=O)N2C(C(=O)O)=C(COC(C)=O)CSC12)c1csc(N)n1 (configuration not stated) | > 10 µM |  |
| > 10 µM | > 10 µM | 5 µM (≈ 4.24 µg/mL) |  | > 10 µM |  |  |  |  |  | ≤ 0.0781 µM | 0.156 µM (≈ 0.132 µg/mL) | 10 µM (≈ 8.47 µg/mL) | CO[C@H]1/C=C/O[C@@]2(C)Oc3c(C)c(O)c4c(c3C2=O)C2=NC3(CCN(CC(C)C)CC3)NC2=C(NC(=O)/C(C)=C\C=C\[C@H](C)[C@H](O)[C@@H](C)[C@@H](O)[C@@H](C)[C@H](OC(C)=O)[C@@H]1C)C4=O [RIFABUTIN] | > 10 µM |  |

— ChEMBL document CHEMBL4513141, “CO-ADD screening of NIH (USA) - Clinical Collection” (2021)
